The text below walks through data of patent US9771389B2, “Tylosin derivatives and method for preparation thereof” (BAYER ANIMAL HEALTH GMBH, priority 2013, dated 2017).

Assay [1] has as its system M. hemolytica KB346 (Tilmicosin-low sensitivity strain). Kind of assay: Paper disc assay, M. hemolytica KB346. Type of assay: cell-based, Mannhemia hemolytica. On the procedure: (§1) (1) Antibacterial activities against Mannheimia and Pasteurella were determined by the following steps: • 1) M. hemolytica KB345 (Tilmicosin-sensitivity strain) and M. hemolytica KB346 (Tilmicosin-low sensitivity strain) were provided. KB 345 strain stored at −80° C. was seeded to BHIB agar medium (10 mL) by using Microbank beads (Pro-Lab) and platinum nail. After statically incubating the KB 345 strain for 24 hours at 37° C., it was seeded to maintaining slant BHIB agar medium (7 mL) by using platinum loop, further statically incubated for 24 hours at 37° C. to obtain slant. One platinum loop of KB 345 strain stored at the slant was inoculated into a large test tube charged with BHIB liquid medium (10 mL) and then incubated for 24 hours at 37° C. with shaking. • 2) A paper disc (ADVANTEC, Φ:6 mm) was impregnated with a solution of test compound and dried under reduced pressure. • 3) To a melted BHIB agar medium was inoculated 1% of the broth obtained from step 1) above to prepare a test plate. After the medium set, the paper disc prepared in step 2) above was put on the plate and it was incubated at 37° C. • 4) After one day, the inhibition zone diameter and clarity (A to E) were determined. For KB346 strain, the same procedures were repeated.

Assay [2] deals with M. hemolytica KB345 (Tilmicosin-sensitivity strain). Kind of assay: Paper disc assay, M. hemolytica KB345. In kind it is cell-based, Mannhemia hemolytica. On the procedure:
as §1

Assay [3] concerns Bacillus subtilis ATCC6633. Kind of assay: Paper disc assay, Bacillus subtilis. In kind it is cell-based. As to conditions: S. On the procedure: (§2) (2) Antibacterial activities against other bacteria were determined with Micrococcus luteus ATCC9341 (1), Bacillus subtilis […] (s), Escherichia coli NIHJ (c), Xanthomonas campestris KB88 (X), Mucor racemosus IFO 4581 (Mu) and Candida albicans ATCC 64548 (Ca).
(§3) Bacillus subtilis ATCC6633 was incubated in Davis synthetic medium and then the seed broth was combined with the medium in the ratio of 1:99 to obtain a test plate. Micrococcus luteus ATCC9341, Escherichia coli NIHJ and Xanthomonas campestris KB88 were respectively incubated in Nutrient agar medium and inoculated at 0.2%, 0.5% and 1.0%. Mucor racemosus IFO 4581 and Candida albicans ATCC 64548 were respectively incubated in GY agar medium and then inoculated at 0.3% and 0.2%.
(§4) A paper disc (ADVANTEC, Φ:6 mm) was impregnated with a solution of test compound and dried under reduced pressure. The paper disc was put on the test plate and it was incubated for 24 hours at 37° C. After incubation, the inhibition zone diameter and clarity (A to E) were determined.

The test system of assay [4] is Micrococcus luteus ATCC9341. Kind of assay: Paper disc assay, Micrococcus luteus. As to conditions: column 1. In kind it is cell-based. On the procedure: as §2, §3, §4
Assay [5] concerns Xanthomonas campestris KB88. Kind of assay: Paper disc assay, Xanthomonas campestris. Type of assay: cell-based. As to conditions: X. On the procedure:
as §2, §3, §4

Molecules are shown by their SMILES.

Regarding `CC[C@H]1OC(=O)C[C@@H](O)[C@H](C)[C@@H](O[C@@H]2O[C@H](C)[C@@H](O)[C@H](N(C)C)[C@H]2O)[C@@H](CC=O)C[C@@H](C)C(=O)/C=C/C(C)=C/[C@@H]1CO` [YT106, 5-O-mycaminosyltylonolide], the Inhibition zone is 9.0 mm in assay [1] (10 mg/6 mm disk, Table 5); 13.0 mm in assay [1] (30 mg/6 mm disk, Table 5); 17.0 mm in assay [1] (100 mg/6 mm disk, Table 5); 8.5 mm in assay [2] (10 mg/6 mm disk, Table 4); 12.5 mm in assay [2] (30 mg/6 mm disk, Table 4); 15.0 mm in assay [2] (100 mg/6 mm disk, Table 4).
As for `CCC1OC(=O)CC(O)C(C)C(OC2OC(C)C(O)C(N(C)C)C2O)C(CCCl)CC(C)C(=O)C=CC(C)=CC1COC1OC(C)C(O)C(OC)C1OC` (stereo not drawn) [YT8, 20-chloro-20-deoxodesmycosin], the Inhibition zone in assay [1] (30 mg/6 mm disk, Table 3) came to 11.0 mm; in assay [1] (100 mg/6 mm disk, Table 3), 14.5 mm; in assay [2] (10 mg/6 mm disk, Table 2) it was 12.5 mm; in assay [2] (30 mg/6 mm disk, Table 2), 18.0 mm; in assay [2] (100 mg/6 mm disk, Table 2) it was 20.0 mm.
Consider `CCC1OC(=O)CC(O)C(C)C(OC2OC(C)C(O)C(N(C)C)C2O)C(CC=O)CC(C)C(=O)C=CC(C)=CC1CN=[N+]=[N-]` (stereo not drawn) [YT107, 23-azido-23-deoxo-5-O-mycaminosyltylonolide], for which the Inhibition zone came out at 10.5 mm in assay [1] (30 mg/6 mm disk, Table 5); 15.0 mm in assay [1] (100 mg/6 mm disk, Table 5); 12.0 mm in assay [2] (3 mg/6 mm disk, Table 4); 16.0 mm in assay [2] (10 mg/6 mm disk, Table 4); 18.0 mm in assay [2] (30 mg/6 mm disk, Table 4); 21.5 mm in assay [2] (100 mg/6 mm disk, Table 4).
Take `CC[C@H]1OC(=O)C[C@@H](O)[C@H](C)[C@@H](O[C@@H]2O[C@H](C)[C@@H](O)[C@H](N(C)C)[C@H]2O)[C@@H](CC=O)C[C@@H](C)C(=O)/C=C/C(C)=C/[C@@H]1CO[C@@H]1O[C@H](C)[C@@H](O)[C@@H](OC)[C@H]1OC` [YT6, Desmycosin]: the Inhibition zone in assay [1] (3 mg/6 mm disk, Table 3) is 8.5 mm; in assay [1] (10 mg/6 mm disk, Table 3) it was 13.5 mm; in assay [1] (30 mg/6 mm disk, Table 3), 17.5 mm; in assay [1] (100 mg/6 mm disk, Table 3), 21.0 mm; in assay [2] (30 mg/6 mm disk, Table 2) it was 10.5 mm.
With `CCC1OC(=O)CC(O)C(C)C(OC2OC(C)C(O)C(N(C)C)C2O)C(CC=O)CC(C)C(=O)C=CC(C)=CC1CI` (stereo not drawn) [YT111], the Inhibition zone stood at 8.5 mm in assay [1] (30 mg/6 mm disk, Table 5); 13.0 mm in assay [1] (100 mg/6 mm disk, Table 5); 11.5 mm in assay [2] (3 mg/6 mm disk, Table 4); 15.5 mm in assay [2] (10 mg/6 mm disk, Table 4); 20.0 mm in assay [2] (30 mg/6 mm disk, Table 4); 25.0 mm in assay [2] (100 mg/6 mm disk, Table 4).
`CC[C@H]1OC(=O)C[C@@H](O)[C@H](C)[C@@H](O[C@@H]2OC(C)[C@@H](O)C(N(C)C)C2O)[C@@H](CCn2cc(-c3ccccn3)nn2)C[C@@H](C)C(=O)/C=C/C(C)=C/[C@@H]1CO[C@@H]1OC(C)[C@@H](O)C(OC)C1OC` (stereo partly drawn) [YT12, 20-(4-(pyridine-2-yl)-1H-1,2,3-triazol-1-yl)-20-deoxodesmycosin]: the Inhibition zone turned out to be 7 mm in assay [3] (0.1 mg/6 mm disc); 12.5 mm in assay [3] (1 mg/6 mm disc); 14 mm in assay [3] (10 mg/6 mm disc); 12 mm in assay [4] (0.1 mg/6 mm disc); 18.5 mm in assay [4] (1 mg/6 mm disc); 25 mm in assay [4] (10 mg/6 mm disc). Further, the Inhibition zone in assay [5] (0.1 mg/6 mm disc) turned out to be 7 mm; in assay [5] (10 mg/6 mm disc), 27 mm.
In the case of `CC[C@H]1OC(=O)C[C@@H](O)[C@H](C)[C@@H](O[C@@H]2OC(C)[C@@H](O)C(N(C)C)C2O)[C@@H](CCn2cc(-c3ccc(N(C)C)cc3)nn2)C[C@@H](C)C(=O)/C=C/C(C)=C/[C@@H]1CO[C@@H]1OC(C)[C@@H](O)C(OC)C1OC` (stereo partly drawn) [YT29, 20-(4-(4-dimethylaminophenyl)-1H-1,2,3-triazol-1-yl)-20-deoxodesmycosin], the Inhibition zone in assay [3] (0.1 mg/6 mm disc) came out at 7 mm; in assay [3] (1 mg/6 mm disc), 10 mm; in assay [3] (10 mg/6 mm disc), 15 mm; in assay [4] (0.1 mg/6 mm disc), 11 mm; in assay [4] (1 mg/6 mm disc) it was 19.5 mm; in assay [4] (10 mg/6 mm disc), 25.5 mm. Further, the Inhibition zone in assay [5] (0.1 mg/6 mm disc) is on record as 7 mm; in assay [5] (1 mg/6 mm disc) it was 15 mm; in assay [5] (10 mg/6 mm disc), 24 mm.
